In the NIST ThermoML archive (doi:10.1021/je3013342):
Numbers after ± are expanded uncertainties.

Key:
[1] = 101 kPa, Liquid, Vibrating tube method
[2] = xn = mol fraction of the nth substance listed; conditions: 101 kPa, Liquid, Vibrating tube method

CC(Cl)(Cl)Cl [1,1,1-trichloroethane]
[1]
Conditions	mass density [kg/m3]
298.15 K	1328.24 ± 0.93
308.15 K	1311.45 ± 0.92
318.15 K	1294.47 ± 0.91

CC(Cl)(Cl)Cl [1,1,1-trichloroethane] + C[N+](=O)[O-]
mass density [kg/m3], [2]
Conditions	x1 = 0.0921	x1 = 0.1727	x1 = 0.2614	x1 = 0.3951	x1 = 0.4862	x1 = 0.5904	x1 = 0.7066	x1 = 0.8358	x1 = 0.9012	x1 = 1
298.15 K	1161.87 ± 0.94	1185.48 ± 0.95	1208.35 ± 0.95	1238.06 ± 0.95	1255.6 ± 0.95	1273.47 ± 0.94	1291.18 ± 0.94	1308.67 ± 0.93	1316.72 ± 0.93	1328.24 ± 0.93
308.15 K	1147.77 ± 0.94	1170.98 ± 0.94	1193.5 ± 0.94	1222.71 ± 0.94	1239.96 ± 0.94	1257.52 ± 0.94	1274.93 ± 0.93	1292.14 ± 0.93	1300.08 ± 0.92	1311.45 ± 0.92
318.15 K	1133.54 ± 0.93	1156.35 ± 0.93	1178.49 ± 0.93	1207.19 ± 0.93	1224.13 ± 0.93	1241.39 ± 0.93	1258.49 ± 0.92	1275.42 ± 0.92	1283.24 ± 0.92	1294.47 ± 0.91

ClC(Cl)C(Cl)Cl [1,1,2,2-tetrachloroethane]
[1]
Conditions	mass density [kg/m3]
298.15 K	1588.23 ± 2.3
308.15 K	1572.66 ± 2.2
318.15 K	1557.04 ± 2.2

ClC(Cl)C(Cl)Cl [1,1,2,2-tetrachloroethane] + C[N+](=O)[O-]
mass density [kg/m3], [2]
Conditions	x1 = 0.0711	x1 = 0.1888	x1 = 0.2563	x1 = 0.3464	x1 = 0.4341	x1 = 0.5431	x1 = 0.6654	x1 = 0.8211	x1 = 0.9285	x1 = 1
298.15 K	1191.08 ± 1	1275.68 ± 1.1	1318 ± 1.2	1366.65 ± 1.3	1408.57 ± 1.4	1454.03 ± 1.5	1497.84 ± 1.7	1544.6 ± 1.9	1571.92 ± 2.1	1588.23 ± 2.3
308.15 K	1177.12 ± 1	1261.26 ± 1.1	1303.41 ± 1.2	1351.85 ± 1.3	1393.61 ± 1.4	1438.91 ± 1.5	1482.56 ± 1.7	1529.17 ± 1.9	1556.4 ± 2.1	1572.66 ± 2.2
318.15 K	1163.03 ± 1	1246.76 ± 1.1	1288.69 ± 1.1	1336.94 ± 1.2	1378.54 ± 1.3	1423.68 ± 1.5	1467.2 ± 1.6	1513.67 ± 1.9	1540.82 ± 2.1	1557.04 ± 2.2

ClCCCl [1,2-dichloroethane]
[1]
Conditions	mass density [kg/m3]
298.15 K	1245.59 ± 0.81
308.15 K	1230.96 ± 0.81
318.15 K	1216.16 ± 0.81

ClCCCl [1,2-dichloroethane] + C[N+](=O)[O-]
[2], x1 = 1
Conditions	mass density [kg/m3]
298.15 K	1245.59 ± 0.81
308.15 K	1230.96 ± 0.81
318.15 K	1216.16 ± 0.81

ClCCCCl [1,3-dichloropropane]
[1]
Conditions	mass density [kg/m3]
298.15 K	1180.1 ± 0.81
308.15 K	1167.7 ± 0.81
318.15 K	1155.21 ± 0.81

ClCCCCl [1,3-dichloropropane] + C[N+](=O)[O-]
mass density [kg/m3], [2]
Conditions	x1 = 0.0878	x1 = 0.1939	x1 = 0.2938	x1 = 0.3998	x1 = 0.5028	x1 = 0.6154	x1 = 0.7207	x1 = 0.8326	x1 = 0.9404	x1 = 1
298.15 K	1135.58 ± 0.91	1141.34 ± 0.89	1146.79 ± 0.87	1152.41 ± 0.85	1157.65 ± 0.84	1163.15 ± 0.83	1168.07 ± 0.82	1173.04 ± 0.82	1177.55 ± 0.81	1180.1 ± 0.81
308.15 K	1122.12 ± 0.9	1128.05 ± 0.88	1133.64 ± 0.86	1139.39 ± 0.85	1144.76 ± 0.84	1150.38 ± 0.83	1155.41 ± 0.82	1160.49 ± 0.82	1165.1 ± 0.81	1167.7 ± 0.81
318.15 K	1108.53 ± 0.89	1114.63 ± 0.88	1120.37 ± 0.86	1126.26 ± 0.85	1131.76 ± 0.84	1137.51 ± 0.83	1142.65 ± 0.82	1147.84 ± 0.82	1152.56 ± 0.81	1155.21 ± 0.81

ClCCCCCl [1,4-dichlorobutane]
[1]
Conditions	mass density [kg/m3]
298.15 K	1133.94 ± 0.8
308.15 K	1123 ± 0.8
318.15 K	1112 ± 0.8

ClCCCCCl [1,4-dichlorobutane] + C[N+](=O)[O-]
mass density [kg/m3], [2]
Conditions	x1 = 0.0825	x1 = 0.1759	x1 = 0.2825	x1 = 0.3815	x1 = 0.4815	x1 = 0.5911	x1 = 0.6898	x1 = 0.8208	x1 = 0.9262	x1 = 1
298.15 K	1128.17 ± 0.9	1126.77 ± 0.88	1126.33 ± 0.85	1126.62 ± 0.84	1127.33 ± 0.83	1128.46 ± 0.82	1129.64 ± 0.81	1131.38 ± 0.81	1132.86 ± 0.81	1133.94 ± 0.8
308.15 K	1114.98 ± 0.89	1113.92 ± 0.87	1113.86 ± 0.85	1114.44 ± 0.84	1115.42 ± 0.83	1116.8 ± 0.82	1118.18 ± 0.81	1120.16 ± 0.81	1121.81 ± 0.81	1123 ± 0.8
318.15 K	1101.65 ± 0.89	1100.97 ± 0.87	1101.28 ± 0.85	1102.17 ± 0.83	1103.42 ± 0.82	1105.05 ± 0.82	1106.65 ± 0.81	1108.88 ± 0.81	1110.7 ± 0.8	1112 ± 0.8

CCCCCl [1-chlorobutane]
[1]
Conditions	mass density [kg/m3]
298.15 K	881.17 ± 0.81
308.15 K	870 ± 0.81
318.15 K	858.67 ± 0.81

CCCCCl [1-chlorobutane] + C[N+](=O)[O-]
[2], x1 = 1
Conditions	mass density [kg/m3]
298.15 K	881.17 ± 0.81
308.15 K	870 ± 0.81
318.15 K	858.67 ± 0.81
